In PubChem BioAssay AID1963854 (Molecular Pharmacology Branch, DTP, NCI, 2024):
Several values for one entry are separate records, joined by “and”; a condition that tells them apart may be missing. Equal values may be shown once.

Test system: 186277-243-T-J2-PDC complex spheroid viability
Assay: Anticancer human tumor 186277-243-T-J2-PDC patient-derived colon adenocarcinoma cell line growth inhibition [POLQ]
Settings: for viability, T/C: stronger effect = lower value; for IC50: curve of compound
Method: Multicellular complex tumor spheroid response to Polymerase (POL) inhibitors (novobiocin, ART-558, RP6685) in combination with a variety of drugs and investigational agents in selected tumor cell lines
The POL inhibitors (novobiocin, ART-558, and RP6685) were evaluated both individually and in combination with standard of care and investigational anticancer small molecules within a complex spheroid model of solid tumors. . Complex spheroids include a stromal component modeled by human endothelial cells (HUVEC) and fibroblasts modeled by human mesenchymal stem cells (MSCs). The concentration ranges selected for each drug and investigational agent were based upon clinically achievable concentrations if the clinical Cmax of the agent was known.
Compounds. The drugs and investigational agents: novobiocin (NSC847541), ART-558 (NSC835418), RP-6685 (NSC848927), peposertib (NSC802822), ceralasertib (NSC780249), elimusertib (NSC800525), camonsertib (NSC841442), AZD-1390 (NSC803789), olaparib (NSC753686), talazoparib (NSC767125), rucaparib (NSC756644), sotorasib (NSC818433), MRTX-1133 (NSC836407), SN-38 (NSC673596), topotecan (NSC609699), epotoside (NSC141540), doxorubicin (NSC123127), gemcitabine (NSC613327), 5-fluorouracil (NSC19893), paclitaxel (NSC125973), vemurafenib (NSC761431), MSA-2 (NSC828583), SN-011 (NSC837082), adavosertib (NSC754352), prexasertib (NSC758257), carboplatin (NSC241240) and oxaliplatin (NSC266046), were obtained from the National Cancer Institute (NCI) Developmental Therapeutics Program Chemical Repository (21). The FDA-approved anticancer drug set is available from the Developmental Therapeutics Program at https://dtp.cancer.gov/organization/dscb/obtaining/. […] The stock solutions were prepared in dimethyl sulfoxide (DMSO, Sigma-Aldrich, St. Louis, MO, cat. D2650), except for the platinum compounds which were prepared in saline (Quality Biological, Gaithersburg, MD, cat. 114-055-101), at 800-fold the tested concentration and stored at -70 degrees C prior to their use. All drugs and investigational agents were tested over a range starting from a high concentration at or near the clinical Cmax and decreasing in half-log increments. If the clinical Cmax for an agent had not been determined, the highest concentration tested was 10 microM, except for SN-38, which was tested at a high concentration of 1 microM.
Cell Culture. All cells were maintained in an incubator at 37 degrees C and 5% CO2 with 95% humidity. The PDC lines were cultured according to standard operating procedures established by the NCI PDMR (https://pdmr.cancer.gov). Table 3 of the manuscript, lists the cell lines along with the number of the three cell types plated to form the mct-spheroids and media for tumor cell growth. After thawing, all PDC lines, except 997537-175-T-J1-PDC and 415267-285-R-J2-PDC, were cultured in Matrigel-coated flasks prepared with a working solution of 1X Ham's F-12 nutrient mix, without supplementation (Thermo Fisher Scientific, cat. 11765054), 100 U/mL penicillin-streptomycin (Thermo Fisher Scientific, cat. 15140122), and 2.5% Matrigel (Corning Inc., Corning, NY, cat. 354248) for the first three passages. The two PDC lines 997537-175-T-J1-PDC and 415267-285-R-J2-PDC were cultured on uncoated flasks. The 857933-349-R-J2-PDC line was cultured in 6C/Colon 1B media containing advanced DMEM/F-12 (Thermo Fisher Scientific, cat. 12634028), 10 mM HEPES (Thermo Fisher Scientific, cat. 15630080), 1X GlutaMAX supplement (Thermo Fisher Scientific, cat. 35050061), 0.1 mg/mL primocin (InvivoGen, San Diego, CA, cat. ant-pm-2), 10% defined fetal bovine serum, heat inactivated (HyClone Laboratories Inc., Logan, UT, cat. SH30070.03HI), 50% L-WRN conditioned media (ATCC, cat. CRL-3276), 1.25 mM N-Acetyl-L-cysteine (Sigma-Aldrich, cat. A9165), 10 mM nicotinamide (Sigma-Aldrich, cat. N0636), 1X B-27 supplement (Thermo Fisher Scientific, cat. 17504044), 1X N-2 supplement (Thermo Fisher Scientific, cat. […]
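Note: spheroids exposed to compounds for seven days.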
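Throughout, for viability, T/C: 100% = DMSO vehicle control viability.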

| Structure (SMILES) | viability, T/C (compound 0.0316 µM) | viability, T/C (compound 0.1 µM) | viability, T/C (compound 0.316 µM) | viability, T/C (compound 1 µM) | viability, T/C (compound 3.16 µM) | viability, T/C (compound 10 µM) | IC50 | viability, T/C (compound 0.00316 µM) | viability, T/C (compound 0.01 µM) | viability, T/C (compound 0.00949 µM) | viability, T/C (compound 0.03 µM) | viability, T/C (compound 0.0949 µM) | viability, T/C (compound 0.3 µM) | viability, T/C (compound 0.949 µM) | viability, T/C (compound 3 µM) | viability, T/C (compound 0.000316 µM) | viability, T/C (compound 0.001 µM) |
| --- | --- | --- | --- | --- | --- | --- | --- | --- | --- | --- | --- | --- | --- | --- | --- | --- | --- |
| C#Cc1c(F)ccc2cc(O)cc(-c3ncc4c(N5CC6CCC(C5)N6)nc(OCC56CCCN5CC(F)C6)nc4c3F)c12 (stereo unspecified) | 85.1% and 95.6% and 68.7% | 53.8% and 92.9% and 36.9% | 20.1% and 56% and 19.9% | 12% and 28% and 9.47% | 7.06% and 18.8% and 5.67% | 5.14% and 11.6% and 4.6% | 113 nM and 427 nM and 62.6 nM | – | – | – | – | – | – | – | – | – | – |
| C=CC(=O)N1CCN(c2nc(=O)n(-c3c(C)ccnc3C(C)C)c3nc(-c4c(O)cccc4F)c(F)cc23)C(C)C1 (stereo unspecified) | 99.7% and 104% and 101% | 93.3% and 94.9% and 105% | 97.6% and 89.5% and 103% | 96.6% and 85.6% and 99% | 101% and 104% and 109% | 103% and 95% and 93.3% | > 10000 nM | – | – | – | – | – | – | – | – | – | – |
| C=CCn1c(=O)c2cnc(Nc3ccc(N4CCN(C)CC4)cc3)nc2n1-c1cccc(C(C)(C)O)n1 | 97.8% and 104% and 94.2% | 93.9% and 91.6% and 113% | 13.8% and 27.6% and 28.5% | 7.74% and 14.5% and 12.9% | – | – | 188 nM and 211 nM and 224 nM | 95.7% and 86.8% and 99.2% | 96% and 97.5% and 95.8% | – | – | – | – | – | – | – | – |
| CC(=O)O[C@H]1C(=O)[C@@]2(C)[C@H]([C@H](OC(=O)c3ccccc3)[C@]3(O)C[C@H](OC(=O)[C@H](O)[C@@H](NC(=O)c4ccccc4)c4ccccc4)C(C)=C1C3(C)C)[C@]1(OC(C)=O)CO[C@@H]1C[C@@H]2O | – | – | – | – | – | – | < 9.49 nM | – | – | 38.5% and 44.7% and 19.1% | 10.6% and 11.3% and 5.03% | 7.36% and 7.77% and 3.51% | 5.49% and 5.99% and 2.78% | 5.37% and 6% and 2.77% | 4.97% and 5.56% and 2.45% | – | – |
| CC(C)n1c(=O)n(C)c2cnc3cc(F)c(-c4ccc(OCCCN5CCCCC5)nc4)cc3c21 | 86.3% and 111% and 107% | 104% and 91.8% and 97.7% | 89.3% and 95.6% and 91.6% | 100% and 98.3% and 88.6% | 100% and 98.2% and 98.4% | 86% and 92.2% and 96.9% | > 10000 nM | – | – | – | – | – | – | – | – | – | – |
| CC1COCCN1c1cc(-c2ccnn2C)c2ccnc(-c3ccn[nH]3)c2n1 (stereo unspecified) | 71.3% and 65.3% and 109% | 13% and 10.7% and 26.4% | 5.52% and 4.67% and 10.7% | 4.69% and 4.34% and 7.36% | 4.26% and 2.97% and 6.64% | 4.3% and 3.61% and 9.38% | 48.2 nM and 43.7 nM and 72.2 nM | – | – | – | – | – | – | – | – | – | – |
| CC1COCCN1c1cc(C2(O)CC3CCC(C2)O3)c2cnn(-c3ccn[nH]3)c2n1 (stereo unspecified) | 62.7% and 62.5% and 102% | 11% and 9.46% and 22.4% | 5.2% and 4.15% and 9.01% | 4.03% and 3.64% and 7.13% | 4.12% and 3.11% and 9.4% | 4.18% and 3.19% and 7.62% | 41.9 nM and 41.4 nM and 67.2 nM | – | – | – | – | – | – | – | – | – | – |
| CC1COCCN1c1cc(C2(S(C)(=N)=O)CC2)nc(-c2ccnc3[nH]ccc23)n1 (stereo unspecified) | 97.6% and 101% and 100% | 110% and 107% and 101% | 102% and 106% and 112% | 38% and 82.3% and 42.9% | 7.52% and 14% and 6.48% | 5.94% and 9.28% and 6.22% | 805 nM and 1720 nM and 876 nM | – | – | – | – | – | – | – | – | – | – |
| CCCS(=O)(=O)Nc1ccc(F)c(C(=O)c2c[nH]c3ncc(-c4ccc(Cl)cc4)cc23)c1F | 93.5% and 97.3% and 96.7% | 80.9% and 85.4% and 97.5% | 92.2% and 94.7% and 93% | 90.7% and 79.6% and 82.2% | 82.9% and 100% and 89.3% | 64.4% and 59.1% and 42.5% | > 10000 nM and 8340 nM | – | – | – | – | – | – | – | – | – | – |
| CC[C@@]1(O)C(=O)OCc2c1cc1n(c2=O)Cc2cc3c(CN(C)C)c(O)ccc3nc2-1 | 71.8% and 125% and 61.7% | 48.8% and 88.5% and 38.6% | – | – | – | – | 94.1 nM and > 100 nM and 56.7 nM | 112% and 111% and 129% | 119% and 125% and 112% | – | – | – | – | – | – | 96.6% and 87.7% and 89.5% | 91.4% and 93.5% and 116% |
| CCc1c2c(nc3ccc(O)cc13)-c1cc3c(c(=O)n1C2)COC(=O)[C@]3(O)CC | 25.4% and 47% and 22.2% | 12.7% and 25.5% and 10.8% | 9.65% and 21.7% and 8.26% | 7.75% and 21.3% and 6.71% | – | – | 9.35 nM and 27.7 nM and 6.11 nM | 71.2% and 120% and 58.7% | 48.6% and 82.9% and 43.5% | – | – | – | – | – | – | – | – |
| CCc1cc2c(N3CCc4c(cc(Cn5ccnc5)cc4-c4cn(C)nc4C(F)(F)F)C3=O)cc(C)nc2c(OC)n1 | 100% and 88.7% and 82.3% | 110% and 93% and 96.3% | 101% and 96.8% and 86.6% | 104% and 106% and 86.8% | 86% and 109% and 103% | 76.3% and 99.6% and 88.1% | > 10000 nM | – | – | – | – | – | – | – | – | – | – |
| CCc1cc2c(N3CCc4c(cc(Cn5ccnc5)cc4-c4cn(C)nc4C(F)(F)F)C3=O)ccnc2c(OC)n1 | 103% and 94.2% and 101% | 91.9% and 87.2% and 87.1% | 88.2% and 90.2% and 95.8% | 84.1% and 101% and 107% | 87.8% and 103% and 101% | 83.4% and 104% and 91.2% | > 10000 nM | – | – | – | – | – | – | – | – | – | – |
